Measured values: US20210395239A1 (Hoffmann-La Roche Inc., priority 2018, published 2021)

Molecular target: T1, human TLR8 (Homo sapiens, UniProt Q9NR97)
T1 construct: host or cells: HEK293 (HEK-Blue hTLR8)
T1 sequence (Q9NR97 27-1041): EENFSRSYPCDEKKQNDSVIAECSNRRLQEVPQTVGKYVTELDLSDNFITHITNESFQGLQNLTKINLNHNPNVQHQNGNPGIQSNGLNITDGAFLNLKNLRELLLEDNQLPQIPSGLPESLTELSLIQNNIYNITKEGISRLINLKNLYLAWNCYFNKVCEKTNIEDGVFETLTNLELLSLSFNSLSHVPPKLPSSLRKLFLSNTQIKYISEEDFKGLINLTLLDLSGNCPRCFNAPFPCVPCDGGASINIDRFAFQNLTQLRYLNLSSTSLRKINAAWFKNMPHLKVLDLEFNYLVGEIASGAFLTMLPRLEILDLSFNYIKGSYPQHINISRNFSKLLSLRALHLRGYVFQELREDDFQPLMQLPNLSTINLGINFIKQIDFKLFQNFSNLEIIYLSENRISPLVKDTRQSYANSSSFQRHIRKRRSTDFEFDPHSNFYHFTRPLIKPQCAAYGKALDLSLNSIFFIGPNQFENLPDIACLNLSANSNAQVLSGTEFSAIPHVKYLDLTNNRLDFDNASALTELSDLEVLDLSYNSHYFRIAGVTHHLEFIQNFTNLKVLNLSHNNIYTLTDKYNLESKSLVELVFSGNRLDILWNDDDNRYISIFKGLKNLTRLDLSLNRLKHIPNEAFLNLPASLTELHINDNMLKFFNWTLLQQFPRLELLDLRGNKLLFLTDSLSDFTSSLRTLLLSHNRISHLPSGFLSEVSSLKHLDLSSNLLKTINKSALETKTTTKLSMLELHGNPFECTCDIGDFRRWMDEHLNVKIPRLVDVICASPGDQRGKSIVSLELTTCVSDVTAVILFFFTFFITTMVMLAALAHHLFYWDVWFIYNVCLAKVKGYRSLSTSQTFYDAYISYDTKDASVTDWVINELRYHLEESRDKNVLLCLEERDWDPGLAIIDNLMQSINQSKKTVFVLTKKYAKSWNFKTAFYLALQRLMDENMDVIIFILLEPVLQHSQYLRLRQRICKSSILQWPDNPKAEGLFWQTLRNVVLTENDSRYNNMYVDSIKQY
Assay: HEK293-Blue-hTLR-8 cells assay (SEAP reporter, R848 stimulation)
Type: cell-based
Conditions: HEK293-Blue-hTLR8 cells, R848, 20 hrs; read-out: HEK/hTLR8 IC50
How it was run: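 Antagonism read as reduced R848-induced SEAP reporter secretion, detected by QUANTI-Blue absorbance at 620–655 nm after 2 h. Reporter cells were exposed to compound dilutions in DMEM/10% FBS, 1% DMSO, for 20 h at 37° C.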

Structure (SMILES)	IC50
[2H]c1ccc2c(N3C[C@H](CN4CCN(c5nc(C)cc(N6CC(C)(N)C6)n5)CC4)O[C@H](C)C3)ccc(C#N)c2n1 [Example 135, 5-[(2S,6R)-2-[[4-[4-(3-amino-3-methyl-azetidin-1-yl)-6-methyl-pyrimidin-2-yl]piperazin-1-yl]methyl]-6-methyl-morpholin-4-yl]-2-deuterio-quinoline-8-carbonitrile]	1 nM
[2H]c1ccc2c(N3C[C@H](CN4CCN(c5nc(C)cc(N6CC(N)C6)n5)CC4)O[C@H](C)C3)ccc(C#N)c2n1 [Example 136, 5-[(2S,6R)-2-[[4-[4-(3-aminoazetidin-1-yl)-6-methyl-pyrimidin-2-yl]piperazin-1-yl]methyl]-6-methyl-morpholin-4-yl]-2-deuterio-quinoline-8-carbonitrile]	1 nM
[2H]c1ccc2c(N3C[C@H](CN4CCN(c5ccc(N6CC(C)(N)C6)nc5C)CC4)O[C@H](C)C3)ccc(C#N)c2n1 [Example 137, 5-[(2S,6R)-2-[[4-[6-(3-amino-3-methyl-azetidin-1-yl)-2-methyl-3-pyridyl]piperazin-1-yl]methyl]-6-methyl-morpholin-4-yl]-2-deuterio-quinoline-8-carbonitrile]	11 nM
[2H]c1ccc2c(N3C[C@H](CN4CCN(c5ncc(N6CC(C)(N)C6)cc5C)CC4)O[C@H](C)C3)ccc(C#N)c2n1 [Example 139, 5-[(2S,6R)-2-[[4-[5-(3-amino-3-methyl-azetidin-1-yl)-3-methyl-2-pyridyl]piperazin-1-yl]methyl]-6-methyl-morpholin-4-yl]-2-deuterio-quinoline-8-carbonitrile]	13 nM
[2H]c1ccc2c(N3C[C@H](CN4CCN(c5ccc(N6CC(C)(N)C6)c(C)n5)CC4)O[C@H](C)C3)ccc(C#N)c2n1 [Example 147, 5-[(2S,6R)-2-[[4-[5-(3-amino-3-methyl-azetidin-1-yl)-6-methyl-2-pyridyl]piperazin-1-yl]methyl]-6-methyl-morpholin-4-yl]-2-deuterio-quinoline-8-carbonitrile]	11 nM
Cc1cc(N2CC(C)(N)C2)cnc1N1CCN(C[C@H]2CN(c3ccc(C#N)n4ncc(F)c34)C[C@@H](C)O2)CC1 [Example 148, 4-[(2S,6R)-2-[[4-[5-(3-amino-3-methyl-azetidin-1-yl)-3-methyl-2-pyridyl]piperazin-1-yl]methyl]-6-methyl-morpholin-4-yl]-3-fluoro-pyrazolo[1,5-a]pyridine-7-carbonitrile]	49 nM
[2H]c1ccc2c(N3C[C@H](CN4CCN(c5ccc(N6C[C@@H]7C[C@H]6CN7)nc5)CC4)O[C@H](C)C3)ccc(C#N)c2n1 [Example 151, 2-deuterio-5-[(2S,6R)-2-[[4-[6-[(1S,4S)-2,5-diazabicyclo[2.2.1]heptan-2-yl]-3-pyridyl]piperazin-1-yl]methyl]-6-methyl-morpholin-4-yl]quinoline-8-carbonitrile]	23 nM
[2H]c1ccc2c(N3C[C@H](CN4CCN(c5ccc(N6CC7(CNCCO7)C6)nc5)CC4)O[C@H](C)C3)ccc(C#N)c2n1 [Example 152, 2-deuterio-5-[(2R,6S)-2-methyl-6-[[4-[6-(5-oxa-2,8-diazaspiro[3.5]nonan-2-yl)-3-pyridyl]piperazin-1-yl]methyl]morpholin-4-yl]quinoline-8-carbonitrile]	17 nM
[2H]c1ccc2c(N3C[C@H](CN4CCN(c5ccc(N6C[C@H]7C[C@@H]6CN7)nc5)CC4)O[C@H](C)C3)ccc(C#N)c2n1 [Example 153, 2-deuterio-5-[(2S,6R)-2-[[4-[6-[(1R,4R)-2,5-diazabicyclo[2.2.1]heptan-2-yl]-3-pyridyl]piperazin-1-yl]methyl]-6-methyl-morpholin-4-yl]quinoline-8-carbonitrile]	19 nM

The remaining lines, values ahead:

IC50	Structure (SMILES)
1 nM	[2H]c1ccc2c(N3C[C@H](CN4CCN(c5nc(C)cc(N6C[C@H](OC)[C@@H](N)C6)n5)CC4)O[C@H](C)C3)ccc(C#N)c2n1 [Example 134, 5-[(2S,6R)-2-[[4-[4-[(3S,4S)-3-amino-4-methoxy-pyrrolidin-1-yl]-6-methyl-pyrimidin-2-yl]piperazin-1-yl]methyl]-6-methyl-morpholin-4-yl]-2-deuterio-quinoline-8-carbonitrile]
19 nM	[2H]c1ccc2c(N3C[C@H](CN4CC(c5ccc(N6CC(C)(N)C6)nc5)C4)O[C@H](C)C3)ccc(C#N)c2n1 [Example 138, 5-[(2S,6R)-2-[[3-[6-(3-amino-3-methyl-azetidin-1-yl)-3-pyridyl]azetidin-1-yl]methyl]-6-methyl-morpholin-4-yl]-2-deuterio-quinoline-8-carbonitrile]
25 nM	[2H]c1ccc2c(N3C[C@H](CN4CC(c5ccc(N6C[C@H](OC)[C@@H](N)C6)cc5)C4)O[C@H](C)C3)ccc(C#N)c2n1 [Example 140, 5-[(2S,6R)-2-[[3-[4-[(3S,4S)-3-amino-4-methoxy-pyrrolidin-1-yl]phenyl]azetidin-1-yl]methyl]-6-methyl-morpholin-4-yl]-2-deuterio-quinoline-8-carbonitrile]
9 nM	[2H]c1ccc2c(N3C[C@H](CN4CC(c5ccc(N6CC(C)(N)C6)cc5)C4)O[C@H](C)C3)ccc(C#N)c2n1 [Example 141, 5-[(2S,6R)-2-[[3-[4-(3-amino-3-methyl-azetidin-1-yl)phenyl]azetidin-1-yl]methyl]-6-methyl-morpholin-4-yl]-2-deuterio-quinoline-8-carbonitrile]
17 nM	[2H]c1ccc2c(N3C[C@H](CN4CCN(c5ncc(N6C[C@@H](N)[C@H](OC)C6)cc5C)CC4)O[C@H](C)C3)ccc(C#N)c2n1 [Example 142, 5-[(2S,6R)-2-[[4-[5-[(3R,4R)-3-amino-4-methoxy-pyrrolidin-1-yl]-3-methyl-2-pyridyl]piperazin-1-yl]methyl]-6-methyl-morpholin-4-yl]-2-deuterio-quinoline-8-carbonitrile]
8 nM	[2H]c1ccc2c(N3C[C@H](CN4CCN(c5ccc(N6C[C@@H](N)[C@H](OC)C6)nc5)CC4)O[C@H](C)C3)ccc(C#N)c2n1 [Example 143, 5-[(2S,6R)-2-[[4-[6-[(3R,4R)-3-amino-4-methoxy-pyrrolidin-1-yl]-3-pyridyl]piperazin-1-yl]methyl]-6-methyl-morpholin-4-yl]-2-deuterio-quinoline-8-carbonitrile]
1 nM	[2H]c1ccc2c(N3C[C@H](CN4CCN(c5nc(C)cc(N6C[C@@H](N)[C@H](OC)C6)n5)CC4)O[C@H](C)C3)ccc(C#N)c2n1 [Example 144, 5-[(2S,6R)-2-[[4-[4-[(3R,4R)-3-amino-4-methoxy-pyrrolidin-1-yl]-6-methyl-pyrimidin-2-yl]piperazin-1-yl]methyl]-6-methyl-morpholin-4-yl]-2-deuterio-quinoline-8-carbonitrile]
14 nM	[2H]c1ccc2c(N3C[C@H](CN4CC(c5cnc(N6CC(C)(N)C6)cc5C)C4)O[C@H](C)C3)ccc(C#N)c2n1 [Example 145, 5-[(2S,6R)-2-[[3-[6-(3-amino-3-methyl-azetidin-1-yl)-4-methyl-3-pyridyl]azetidin-1-yl]methyl]-6-methyl-morpholin-4-yl]-2-deuterio-quinoline-8-carbonitrile]
14 nM	[2H]c1ccc2c(N3C[C@H](CN4CC(c5cnc(N6C[C@@H](N)[C@H](OC)C6)cc5C)C4)O[C@H](C)C3)ccc(C#N)c2n1 [Example 146, 5-[(2S,6R)-2-[[3-[6-[(3R,4R)-3-amino-4-methoxy-pyrrolidin-1-yl]-4-methyl-3-pyridyl]azetidin-1-yl]methyl]-6-methyl-morpholin-4-yl]-2-deuterio-quinoline-8-carbonitrile]
12 nM	[2H]c1ccc2c(N3C[C@H](CN4CC(c5ccc(N6C[C@@H](N)[C@H](OC)C6)nc5)C4)O[C@H](C)C3)ccc(C#N)c2n1 [Example 149, 5-[(2S,6R)-2-[[3-[6-[(3R,4R)-3-amino-4-methoxy-pyrrolidin-1-yl]-3-pyridyl]azetidin-1-yl]methyl]-6-methyl-morpholin-4-yl]-2-deuterio-quinoline-8-carbonitrile]
7 nM	[2H]c1ccc2c(N3C[C@H](CN4CCN(c5ccc(N6C[C@H](N)[C@@H](F)C6)nc5)CC4)O[C@H](C)C3)ccc(C#N)c2n1 [Example 150, 5-[(2S,6R)-2-[[4-[6-[(3S,4S)-3-amino-4-fluoro-pyrrolidin-1-yl]-3-pyridyl]piperazin-1-yl]methyl]-6-methyl-morpholin-4-yl]-2-deuterio-quinoline-8-carbonitrile]
